Laboratory results as given in ChEMBL document CHEMBL1127526, “A comparison of the cytotoxic and physical properties of aziridinyl quinone derivatives based on the pyrrolo[1,2-a]benzimidazole and pyrrolo[1,2-a]indole ring systems” (J Med Chem, 1994).

Assay: The highest concentration employed in the cytotoxicity assay was reported
Format: functional

CC(=O)OC1CCn2c1nc1c2C(=O)C(C)=C(N2CC2)C1=O (stereo unspecified)
Concentration: 1 M
